For orientation: IC50 means the concentration needed to halve the response being measured.

Results on seven compounds are retold here after patent publication US10112922B2, “Inhibitor of bruton's tyrosine kinase” (Centaurus BioPharma Co., Ltd., priority 2014, dated 2018).

The target in one data set is Btk kinase (Homo sapiens (Human), UniProt Q06187). Description: Btk kinase enzymatic activity assay (HTRF). It counts as biochemical. Here is the method: The half inhibition concentrations (IC50 values) of the compounds disclosed herein on Btk were determined at both enzymatic level and cellular level: the ability of the compounds to inhibit the activity of Btk kinase was determined in an enzymtic activity assay, and the inhibitory effect of the compounds on BCR-induced calcium flux in cells was determined in a cellular function assay.
(§1) The compounds were gradiently diluted 3 folds starting from 1 mM with 100% DMSO (totally 11 concentrations). 4 μL of each sample with a different concentration was added into 96 μL of reaction buffer (50 mM HEPES, pH 7.4, 10 mM MgCl2, 1 mM EGTA, 0.01% Tween-20, 0.005% BAS, 2 mM DTT). […] The mixture was centrifuged to mix well, followed by adding 2.5 μL of a mixture of ATP (final concentration designated as Km) and TK petide (HTRF® KinEASE™-TK, Cisbio) to initiate the reaction (total reaction volume being 10 μL). […] The enzyme activity for each compound was determined at 11 concentrations, and IC50 values were obtained by GraFit Software 6.0 (Erithacus Software).
On the technique in general: Time-resolved FRET reads energy transfer from a long-lived donor to a nearby acceptor.

The target of the next data set is ITK kinase (Homo sapiens (Human), UniProt Q08881). Description: ITK kinase enzymatic assay (same HTRF method as BTK). It is filed as biochemical. The procedure: as §1
In vitro activity in inhibiting ITK kinase was determined similar to that in respect of BTK kinase.

Another data set concerns OCI-LY-10 cells. The experiment in a line: Efficacy in subcutaneously xenografted tumor model in mice. It counts as in vivo, CB-17 SCID mice. The procedure: SPF grade female CB-17 SCID mice (4-5 week) were used. 0.1 ml of OCI-LY-10 cells suspended in serum-free medium (containing 5×10^6 cells, 30% Matrigel) were injected subcutaneously in both the left and the right flanks of mice. Mice were grouped and numbered when the average tumor volumes were more than 100 mm3, and the body weights and tumor volumes were determined. The mice were randomly grouped according to tumor volumes, and appropriate adjustments were made so that the average body weight in each group is on the same level. Animals were dosed orally on the same day when they were grouped, and body weights and tumor volumes were measured twice a week. Relative tumor growth (T/C) and Tumor growth inhibition (TGI) were the major test indeces.
The equation for calculating the tumor volume is V=0.5×a×b^2, wherein v is the tumor volume, a and b are the length and the width of the tumor, respectively. The relative tumor volume (RTV) was calculated according to the tumor volume with the equation RTV=Vt/V0, wherein V0 was the tumor volume at the time when the animals were grouped, and Vt was the tumor volume at indicated time points. The equation for calculating the relative tumor proliferation rate was T/C (%)=TRTV/CRTV*100%. (TRTV was the RTV of treated group, and CRTV was the RTV of control group).
The equation for calculating the tumor growth inhibition rate was TGI (%)=(1−(tumor volume of the treated group−tumor volume of the treated group at the time when the animals were grouped)/(tumor volume of the control group−tumor volume of the control group at the time when the animals were grouped))*100%.

The nature of data set [1]: Toxicity test in mice (7-day oral administration). It counts as in vivo, CD-1 (ICR) mice. The following applies: for difference in body weight change from control group / toxicity: 1000 mg/kg oral once a day for 7 days; for Average body weight of mice / Changes (%) in mice body weight in treated group over control group: 1000 mg/kg oral once a day. The source says:
Body weights and conditions of mice were monitored every day, during which all mice were not fasting.

The subject of data set [2] is type II collagen-induced arthritis. Description: Type II collagen-induced arthritis mice model. It is filed as in vivo, DBA/1 mice. The procedure: The mice were randomly grouped according to their arthritis scores when the onset of arthritis was observed after 4 weeks. Compounds were then administered continuously for 4 weeks, during which the arthritis scores were evaluated for each mouse and the body weights thereof were measure every other day. The criteria for evaluating the arthritis score were as follows:
1=erythema and mild swelling at ankle joint;
2=erythema and mild swelling from ankle joint to phalangeal joint or metacarpal joint;
3=erythema and moderate swelling from ankle joint to phalangeal joint or metacarpal joint;
4=erythema and severe swelling or ankylosis on whole foot including from ankle joint to phalangeal joint.
Each paw was scored according to the above criteria, and the highest score was 16.

Entries after “also recorded” stand apart in the source; their conditions may differ. Where two headings read alike, the source gives them in different places.

Btk kinase, sequence (Q06187 whole entry): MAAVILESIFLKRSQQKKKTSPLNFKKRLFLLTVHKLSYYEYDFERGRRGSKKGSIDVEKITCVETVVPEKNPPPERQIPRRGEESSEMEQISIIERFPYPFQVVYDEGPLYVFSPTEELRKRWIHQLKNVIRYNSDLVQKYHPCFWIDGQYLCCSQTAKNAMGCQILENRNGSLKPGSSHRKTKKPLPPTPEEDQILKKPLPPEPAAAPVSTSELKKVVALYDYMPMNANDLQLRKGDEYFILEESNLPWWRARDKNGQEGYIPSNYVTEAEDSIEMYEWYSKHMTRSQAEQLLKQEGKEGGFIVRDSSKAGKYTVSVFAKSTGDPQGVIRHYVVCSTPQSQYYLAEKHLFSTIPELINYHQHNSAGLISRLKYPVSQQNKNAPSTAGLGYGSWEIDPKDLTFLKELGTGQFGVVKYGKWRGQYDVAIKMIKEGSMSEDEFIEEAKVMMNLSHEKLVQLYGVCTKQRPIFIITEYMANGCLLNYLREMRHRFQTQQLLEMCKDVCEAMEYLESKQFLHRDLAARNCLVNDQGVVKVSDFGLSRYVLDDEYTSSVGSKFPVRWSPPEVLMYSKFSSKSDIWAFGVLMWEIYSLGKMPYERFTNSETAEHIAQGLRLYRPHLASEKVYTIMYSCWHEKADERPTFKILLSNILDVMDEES
ITK kinase, sequence (Q08881 whole entry): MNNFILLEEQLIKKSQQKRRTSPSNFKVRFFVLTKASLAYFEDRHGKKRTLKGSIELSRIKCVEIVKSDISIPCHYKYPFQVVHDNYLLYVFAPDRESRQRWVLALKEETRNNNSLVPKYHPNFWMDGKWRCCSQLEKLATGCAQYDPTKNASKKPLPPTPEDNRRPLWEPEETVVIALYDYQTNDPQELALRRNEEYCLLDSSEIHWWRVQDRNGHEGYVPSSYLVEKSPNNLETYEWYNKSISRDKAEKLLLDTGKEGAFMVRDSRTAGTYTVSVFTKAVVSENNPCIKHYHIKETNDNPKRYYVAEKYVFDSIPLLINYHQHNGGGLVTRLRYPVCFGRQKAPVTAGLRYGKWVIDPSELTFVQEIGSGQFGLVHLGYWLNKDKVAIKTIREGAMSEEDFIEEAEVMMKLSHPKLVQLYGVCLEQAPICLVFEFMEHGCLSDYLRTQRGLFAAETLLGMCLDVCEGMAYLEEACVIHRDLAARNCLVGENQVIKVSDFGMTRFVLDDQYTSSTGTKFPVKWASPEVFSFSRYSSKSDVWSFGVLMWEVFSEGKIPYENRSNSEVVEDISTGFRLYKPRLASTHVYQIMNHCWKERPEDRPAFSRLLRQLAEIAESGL

For the compound `C/C=C/C(=O)N1CC[C@@H](n2nc(-c3ccc(Oc4ccccc4)cc3)c(C(N)=O)c2N)C1` [Example 7, (R,E)-5-amino-1-(1-(but-2-enoyl)pyrrolidin-3-yl)-3-(4-phenoxyphenyl)-1H-pyrazole-4-carboxamide], the 50% inhibitory concentration (IC50) on Btk kinase (Table 1, read-out: Btk IC50) was < 100 nM. In addition, the IC50 at ITK kinase (Table 1, read-out: Itk IC50) was > 1000 nM. Also, in the data set on OCI-LY-10 cells (100 mg/kg PO QD), the “TGI (%) Day 3” value worked out at 33.27%, the “TGI (%) Day 8” value is reported as 19.00% and the “TGI (%) Day 11” value was found to be 11.28%.
For `COC/C=C/C(=O)N1CC[C@@H](n2nc(-c3ccc(Oc4ccccc4)cc3)c(C(N)=O)c2N)C1` [Example 9, (R,E)-5-amino-1-(1-(4-methoxybut-2-enoyl)pyrrolidin-3-yl)-3-(4-phenoxyphenyl)-1H-pyrazole-4-carboxamide], the half-inhibitory concentration (IC50) at Btk kinase (Table 1, read-out: Btk IC50) is < 100 nM; at Btk kinase (Table 5, kinase selectivity test, read-out: IC50 (nM) BTK), 1.9 nM; on ITK kinase (Table 1, read-out: Itk IC50) it was > 1000 nM; at ITK kinase (Table 5, kinase selectivity test, read-out: IC50 (nM) ITK) it was > 1000 nM. On Btk kinase (calculated from IC50 values), the “selectivity on BTK vs ITK” value is given as “more than 1000 folds”. Further, the “TGI (%) Day 3” value in the data set with OCI-LY-10 cells (100 mg/kg PO QD) worked out at 45.79%. Besides, the “TGI (%) Day 8” value in the data set on OCI-LY-10 cells (100 mg/kg PO QD) came to 39.37%. In addition, in the data set with OCI-LY-10 cells (100 mg/kg PO QD), the “TGI (%) Day 11” value is 43.05%. Also, the “difference in body weight change from control group” value in data set [1] is listed as < 2%. Besides, the toxicity entry in data set [1] is on record as “no toxicity”. Moreover, the “Average body weight of mice” value in data set [1] (Day 1) was determined as 24.4 g; in data set [1] (Day 2) it was 24.6 g; in data set [1] (Day 3) it was 25.1 g; in data set [1] (Day 4) it was 25.6 g; in data set [1] (Day 5), 26.4 g; in data set [1] (Day 6), 26.9 g. The “Average body weight of mice” value in data set [1] (Day 7) worked out at 27.2 g. Also, the “Changes (%) in mice body weight in treated group over control group” value (“Changes (%) in mice body weight” for short) in data set [1] (Day 1) was determined as 100.0%; in data set [1] (Day 2) it was 100.0%; in data set [1] (Day 3), 100.3%; in data set [1] (Day 4), 101.1%; in data set [1] (Day 5), 101.8%; in data set [1] (Day 6), 101.7%. Also, the “Changes (%) in mice body weight” value in data set [1] (Day 7) is 101.7%. For the same compound, the “therapeutic effect on arthritis at very low dosage” value in data set [2] (0.3 mg/kg) is “good therapeutic effect; also recorded: comparable to that of 3 mg/kg of PCI-32765”. The “arthritis (arthritis score) after administration” value in data set [2] (administered continuously for 4 weeks, FIG. 1) is reported as “significantly alleviated”.
Consider `CS(=O)(=O)NC/C=C/C(=O)N1CC[C@@H](n2nc(-c3ccc(Oc4ccccc4)cc3)c(C(N)=O)c2N)C1` [Example 14, (R,E)-5-amino-1-(1-(4-(methylsulfonamido)but-2-enoyl)pyrrolidin-3-yl)-3-(4-phenoxyphenyl)-1H-pyrazole-4-carboxamide], for which the IC50 at Btk kinase (Table 1, read-out: Btk IC50) is < 100 nM; on ITK kinase (Table 1, read-out: Itk IC50), > 1000 nM.
With `NC(=O)c1c(-c2ccc(Oc3ccccc3)cc2)nn([C@@H]2CCN(C(=O)/C=C/CO)C2)c1N` [Example 15, (R,E)-5-amino-1-(1-(4-hydroxybut-2-enoyl)pyrrolidin-3-yl)-3-(4-phenoxyphenyl)-1H-pyrazole-4-carboxamide], the IC50 on Btk kinase (Table 1, read-out: Btk IC50) was < 100 nM; at ITK kinase (Table 1, read-out: Itk IC50) it was > 1000 nM.
Regarding `CC#CC(=O)N1CC[C@@H](n2nc(-c3ccc(Oc4ccccc4)cc3)c(C(N)=O)c2N)C1` [Example 16, (R)-5-amino-1-(1-(but-2-ynoyl)pyrrolidin-3-yl)-3-(4-phenoxyphenyl)-1H-pyrazole-4-carboxamide], the concentration for half-maximal inhibition (IC50) on Btk kinase (Table 1, read-out: Btk IC50) was < 100 nM; on ITK kinase (Table 1, read-out: Itk IC50) it was > 1000 nM. Besides, the “TGI (%) Day 3” value in the data set with OCI-LY-10 cells (50 mg/kg PO BID) was found to be 35.97%; in the data set with OCI-LY-10 cells (100 mg/kg PO QD), 14.97%. The results for the “TGI (%) Day 8” value in the data set with OCI-LY-10 cells (50 mg/kg PO BID) and in the data set with OCI-LY-10 cells (100 mg/kg PO QD) were 32.25% and 19.53%, respectively. Moreover, the “TGI (%) Day 11” value with OCI-LY-10 cells (50 mg/kg PO BID) is reported as 44.47%; with OCI-LY-10 cells (100 mg/kg PO QD) it was 29.98%. Besides, the “difference in body weight change from control group” value in data set [1] is listed as < 2%. Besides, the toxicity entry in data set [1] is recorded as “no toxicity”. The “Average body weight of mice” value is given as 24.8 g in data set [1] (Day 1); 25.3 g in data set [1] (Day 2); 25.7 g in data set [1] (Day 3); 25.9 g in data set [1] (Day 4); 26.3 g in data set [1] (Day 5); 26.5 g in data set [1] (Day 6). For the same compound, the “Average body weight of mice” value in data set [1] (Day 7) is 26.9 g. For the same compound, the “Changes (%) in mice body weight” value in data set [1] (Day 1) is given as 100.0%; in data set [1] (Day 2) it was 101.1%; in data set [1] (Day 3), 100.8%; in data set [1] (Day 4) it was 100.6%; in data set [1] (Day 5), 99.8%; in data set [1] (Day 6) it was 98.5%. In data set [1] (Day 7), the “Changes (%) in mice body weight” value is given as 98.9%.
For `C#CC(=O)N1CC[C@@H](n2nc(-c3ccc(Oc4ccccc4)cc3)c(C(N)=O)c2N)C1` [Example 17, (R)-5-amino-3-(4-phenoxyphenyl)-1-(1-propioloylpyrrolidin-3-yl)-1H-pyrazole-4-carboxamide], the IC50 at Btk kinase (Table 1, read-out: Btk IC50) was < 100 nM; at ITK kinase (Table 1, read-out: Itk IC50), < 100 nM.
Consider `CC#CC(=O)N[C@H]1CC[C@@H](n2nc(-c3ccc(Oc4ccccc4)cc3)c(C(N)=O)c2N)CC1` [Example 18, 5-amino-1-((1s,4s)-4-(but-2-ynamido)cyclohexyl)-3-(4-phenoxyphenyl)-1H-pyrazole-4-carboxamide], for which the IC50 at Btk kinase (Table 1, read-out: Btk IC50) is < 100 nM; on ITK kinase (Table 1, read-out: Itk IC50) it was > 1000 nM.
